Experiments:
rat mu opioid receptor = assay: CRE-Luc luciferase reporter assay with forskolin stimulation; format: cell-based; conditions: FIG. 3, CRE-Luc
Description: Similarly, a constitutively active rat mu opioid receptor was identified using a reporter construct sensitive to Gαi coupling (see FIG. 3). The response element employed in this assay was the cAMP-response element (CRE), which is sensitive to Gαi mediated changes in intracellular levels of cAMP. Signaling through the rat mu opioid receptor via Gαi inhibits adenylate cyclase, causing a decrease in intracellular cAMP. Therefore, an increase in rat mu opioid receptor signaling induces a decrease in CRE mediated reporter activity.
Prior to the present invention, Gαi-mediated decreases in intracellular cAMP were measured by (1) stimulating cells with forskolin, which causes receptor-independent activation of adenylate cyclase and generates an intracellular pool of cAMP; (2) stimulating the cells with ligand; and (3) measuring the ligand-induced, receptor-dependent Gαi-mediated decrease in the intracellular cAMP pool (e.g., using a radioimmunoassay (e.g., New England Nuclear, Boston, Mass.)). […] The basal (and ligand-induced) level of receptor activity was then measured using a standard luciferase assay (see FIG. 3). Coexpression of the receptor of interest with a luciferase reporter gene construct allows one to measure light emission as a readout for basal signaling.

MC-4 receptor = target: T1, MC-4 receptor (Homo sapiens, UniProt P32245, D146M); assay: SMS-Luc luciferase reporter assay in HEK293 cells; format: cell-based; conditions: FIG. 10
T1 construct: expressed in transfected cells; host or cells: HEK293
Protocol: Briefly, HEK293 cells were cotransfected, as described above, with an expression vector encoding either the wild-type MC-4 receptor or the Asp146Met mutant MC-4 receptor and the reporter construct, SMS-Luc. As a negative control, cells were transfected with SMS-Luc and pcDNA1. Basal and ligand (αMHS) induced activity of the negative control, the wild-type MC-4 receptor, and the Asp146Met mutant MC-4 receptor were measured using the luciferase assay described above.

T1 sequence (P32245 whole entry D146M): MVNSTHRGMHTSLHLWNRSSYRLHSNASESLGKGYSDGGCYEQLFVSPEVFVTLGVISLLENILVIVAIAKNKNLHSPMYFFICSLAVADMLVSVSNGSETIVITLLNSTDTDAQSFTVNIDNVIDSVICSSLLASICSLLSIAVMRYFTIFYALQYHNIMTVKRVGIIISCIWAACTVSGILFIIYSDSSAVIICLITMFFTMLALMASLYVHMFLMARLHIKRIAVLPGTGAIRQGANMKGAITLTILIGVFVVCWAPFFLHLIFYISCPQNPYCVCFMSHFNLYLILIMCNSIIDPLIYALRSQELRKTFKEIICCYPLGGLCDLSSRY

C[C@@H](NC(=O)[C@@H](N)Cc1ccc(O)cc1)C(=O)NCC(=O)N(C)[C@@H](Cc1ccccc1)C(=O)NCCO [DAMGO, [D-Ala^2-MePhe^4, Gly-ol^5]enkephalin], reference compound]
effect of agonist stimulation on forskolin induced activity (rat mu opioid receptor): decrease in forskolin induced activity

Asp146Met mutant MC-4 receptor: melanocortin-4 receptor with Asp146Met substitution in the DRY motif
basal level activity compared to wild-type MC-4 receptor (MC-4 receptor): higher basal level activity
